{
  "source": "the supplement of paper PMC10307832",
  "test_in_all_cases": "relative viability (nuclei count vs DMSO), 5 days (fraction); higher = more cells survive",
  "key": {"Gemcitabine": {"compound": "Nc1ccn([C@@H]2O[C@H](CO)[C@@H](O)C2(F)F)c(=O)n1 [Gemcitabine]", "outline": "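Lung cancer cell lines were seeded into 1536-well plates, kept overnight at 37 °C and pinned with five library-drug doses (not always all listed) spaced by √10. After 5 days, nuclei were Hoechst-stained, imaged at 4× and counted with MetaXpress. Viability is treated-well nuclei over vehicle-well nuclei, taken as a median across plates. Plates needed control CV below 25% and at least one doubling.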"}, "Gemcitabine + Bortezomib": {"compound": "Nc1ccn([C@@H]2O[C@H](CO)[C@@H](O)C2(F)F)c(=O)n1 [Gemcitabine] + CC(C)C[C@H](NC(=O)[C@H](Cc1ccccc1)NC(=O)c1cnccn1)B(O)O [Bortezomib] (partner 0.002 µM)", "outline": "(§1)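 Lung cancer cell lines were seeded in 1536-well plates and dosed by pin tool the next day, with either a single drug or a fixed anchor-drug dose combined with five library-drug doses (not always all listed) spaced in √10 steps. Five days later, one step fixed the cells and stained their nuclei (final 0.05% Triton X-100, 1% formaldehyde, 1 ug/ml Hoechst), and nuclei were counted on 4× images. Relative viability is the nuclei count in treated wells divided by the count in vehicle wells, and each value is the median of duplicate plates.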"}, "Gemcitabine + Navitoclax": {"compound": "Nc1ccn([C@@H]2O[C@H](CO)[C@@H](O)C2(F)F)c(=O)n1 [Gemcitabine] + CC1(C)CCC(c2ccc(Cl)cc2)=C(CN2CCN(c3ccc(C(=O)NS(=O)(=O)c4ccc(N[C@H](CCN5CCOCC5)CSc5ccccc5)c(S(=O)(=O)C(F)(F)F)c4)cc3)CC2)C1 [Navitoclax] (partner 0.5 µM)", "outline": "as §1"}, "Gemcitabine + Foretinib": {"compound": "Nc1ccn([C@@H]2O[C@H](CO)[C@@H](O)C2(F)F)c(=O)n1 [Gemcitabine] + COc1cc2c(Oc3ccc(NC(=O)C4(C(=O)Nc5ccc(F)cc5)CC4)cc3F)ccnc2cc1OCCCN1CCOCC1 [Foretinib] (partner 0.25 µM)", "outline": "as §1"}, "Gemcitabine + Lapatinib": {"compound": "Nc1ccn([C@@H]2O[C@H](CO)[C@@H](O)C2(F)F)c(=O)n1 [Gemcitabine] + CS(=O)(=O)CCNCc1ccc(-c2ccc3ncnc(Nc4ccc(OCc5cccc(F)c5)c(Cl)c4)c3c2)o1 [Lapatinib] (partner 2 µM)", "outline": "as §1"}, "Gemcitabine + Pictilisib": {"compound": "Nc1ccn([C@@H]2O[C@H](CO)[C@@H](O)C2(F)F)c(=O)n1 [Gemcitabine] + CS(=O)(=O)N1CCN(Cc2cc3nc(-c4cccc5[nH]ncc45)nc(N4CCOCC4)c3s2)CC1 [Pictilisib] (partner 1 µM)", "outline": "as §1"}, "Gemcitabine + Crizotinib": {"compound": "Nc1ccn([C@@H]2O[C@H](CO)[C@@H](O)C2(F)F)c(=O)n1 [Gemcitabine] + C[C@@H](Oc1cc(-c2cnn(C3CCNCC3)c2)cnc1N)c1c(Cl)ccc(F)c1Cl [Crizotinib] (partner 1 µM)", "outline": "as §1"}, "Gemcitabine + Linsitinib": {"compound": "Nc1ccn([C@@H]2O[C@H](CO)[C@@H](O)C2(F)F)c(=O)n1 [Gemcitabine] + C[C@]1(O)C[C@@H](c2nc(-c3ccc4ccc(-c5ccccc5)nc4c3)c3c(N)nccn32)C1 [Linsitinib] (partner 1 µM)", "outline": "as §1"}, "Gemcitabine + Alpelisib": {"compound": "Nc1ccn([C@@H]2O[C@H](CO)[C@@H](O)C2(F)F)c(=O)n1 [Gemcitabine] + Cc1nc(NC(=O)N2CCC[C@H]2C(N)=O)sc1-c1ccnc(C(C)(C)C(F)(F)F)c1 [Alpelisib] (partner 2 µM)", "outline": "as §1"}, "Gemcitabine + Olaparib": {"compound": "Nc1ccn([C@@H]2O[C@H](CO)[C@@H](O)C2(F)F)c(=O)n1 [Gemcitabine] + O=C(c1cc(Cc2n[nH]c(=O)c3ccccc23)ccc1F)N1CCN(C(=O)C2CC2)CC1 [Olaparib] (partner 8 µM)", "outline": "as §1"}},
  "data": [
    {"cell line": "NCI-H1299", "values": [
      {"measurement": "relative viability", "setting": "Gemcitabine; 0.001 µM", "value": 0.998},
      {"measurement": "relative viability", "setting": "Gemcitabine; 0.003162 µM", "value": 1.05},
      {"measurement": "relative viability", "setting": "Gemcitabine; 0.01 µM", "value": 1},
      {"measurement": "relative viability", "setting": "Gemcitabine; 0.03162 µM", "value": 1.02},
      {"measurement": "relative viability", "setting": "Gemcitabine; 0.1 µM", "value": 1.03},
      {"measurement": "relative viability", "setting": "Gemcitabine + Bortezomib; first compound 0.001 µM", "value": 1.03},
      {"measurement": "relative viability", "setting": "Gemcitabine + Bortezomib; first compound 0.003162 µM", "value": 1.07},
      {"measurement": "relative viability", "setting": "Gemcitabine + Bortezomib; first compound 0.01 µM", "value": 1},
      {"measurement": "relative viability", "setting": "Gemcitabine + Bortezomib; first compound 0.03162 µM", "value": 0.995},
      {"measurement": "relative viability", "setting": "Gemcitabine + Bortezomib; first compound 0.1 µM", "value": 1.07},
      {"measurement": "relative viability", "setting": "Gemcitabine + Navitoclax; first compound 0.001 µM", "value": 1.02},
      {"measurement": "relative viability", "setting": "Gemcitabine + Navitoclax; first compound 0.003162 µM", "value": 1.08},
      {"measurement": "relative viability", "setting": "Gemcitabine + Navitoclax; first compound 0.01 µM", "value": 1.04},
      {"measurement": "relative viability", "setting": "Gemcitabine + Navitoclax; first compound 0.03162 µM", "value": 1.02},
      {"measurement": "relative viability", "setting": "Gemcitabine + Navitoclax; first compound 0.1 µM", "value": 1.06},
      {"measurement": "relative viability", "setting": "Gemcitabine + Foretinib; first compound 0.001 µM", "value": 1.09},
      {"measurement": "relative viability", "setting": "Gemcitabine + Foretinib; first compound 0.003162 µM", "value": 1.08},
      {"measurement": "relative viability", "setting": "Gemcitabine + Foretinib; first compound 0.01 µM", "value": 1.09},
      {"measurement": "relative viability", "setting": "Gemcitabine + Foretinib; first compound 0.03162 µM", "value": 1.07},
      {"measurement": "relative viability", "setting": "Gemcitabine + Foretinib; first compound 0.1 µM", "value": 1.08},
      {"measurement": "relative viability", "setting": "Gemcitabine + Lapatinib; first compound 0.001 µM", "value": 0.941},
      {"measurement": "relative viability", "setting": "Gemcitabine + Lapatinib; first compound 0.003162 µM", "value": 1.01},
      {"measurement": "relative viability", "setting": "Gemcitabine + Lapatinib; first compound 0.01 µM", "value": 0.962},
      {"measurement": "relative viability", "setting": "Gemcitabine + Lapatinib; first compound 0.03162 µM", "value": 0.938},
      {"measurement": "relative viability", "setting": "Gemcitabine + Lapatinib; first compound 0.1 µM", "value": 0.921},
      {"measurement": "relative viability", "setting": "Gemcitabine + Pictilisib; first compound 0.001 µM", "value": 0.637},
      {"measurement": "relative viability", "setting": "Gemcitabine + Pictilisib; first compound 0.003162 µM", "value": 0.728},
      {"measurement": "relative viability", "setting": "Gemcitabine + Pictilisib; first compound 0.01 µM", "value": 0.709},
      {"measurement": "relative viability", "setting": "Gemcitabine + Pictilisib; first compound 0.03162 µM", "value": 0.883},
      {"measurement": "relative viability", "setting": "Gemcitabine + Pictilisib; first compound 0.1 µM", "value": 0.655},
      {"measurement": "relative viability", "setting": "Gemcitabine + Crizotinib; first compound 0.001 µM", "value": 1.03},
      {"measurement": "relative viability", "setting": "Gemcitabine + Crizotinib; first compound 0.003162 µM", "value": 0.977},
      {"measurement": "relative viability", "setting": "Gemcitabine + Crizotinib; first compound 0.01 µM", "value": 0.973},
      {"measurement": "relative viability", "setting": "Gemcitabine + Crizotinib; first compound 0.03162 µM", "value": 0.995},
      {"measurement": "relative viability", "setting": "Gemcitabine + Crizotinib; first compound 0.1 µM", "value": 0.983},
      {"measurement": "relative viability", "setting": "Gemcitabine + Linsitinib; first compound 0.001 µM", "value": 0.987},
      {"measurement": "relative viability", "setting": "Gemcitabine + Linsitinib; first compound 0.003162 µM", "value": 1.01},
      {"measurement": "relative viability", "setting": "Gemcitabine + Linsitinib; first compound 0.01 µM", "value": 0.981},
      {"measurement": "relative viability", "setting": "Gemcitabine + Linsitinib; first compound 0.03162 µM", "value": 1},
      {"measurement": "relative viability", "setting": "Gemcitabine + Linsitinib; first compound 0.1 µM", "value": 0.972},
      {"measurement": "relative viability", "setting": "Gemcitabine + Alpelisib; first compound 0.001 µM", "value": 1.04},
      {"measurement": "relative viability", "setting": "Gemcitabine + Alpelisib; first compound 0.003162 µM", "value": 1.1},
      {"measurement": "relative viability", "setting": "Gemcitabine + Alpelisib; first compound 0.01 µM", "value": 1.03},
      {"measurement": "relative viability", "setting": "Gemcitabine + Alpelisib; first compound 0.03162 µM", "value": 1.05},
      {"measurement": "relative viability", "setting": "Gemcitabine + Alpelisib; first compound 0.1 µM", "value": 1.09},
      {"measurement": "relative viability", "setting": "Gemcitabine + Olaparib; first compound 0.001 µM", "value": 0.984},
      {"measurement": "relative viability", "setting": "Gemcitabine + Olaparib; first compound 0.003162 µM", "value": 1.03},
      {"measurement": "relative viability", "setting": "Gemcitabine + Olaparib; first compound 0.01 µM", "value": 0.962},
      {"measurement": "relative viability", "setting": "Gemcitabine + Olaparib; first compound 0.03162 µM", "value": 1},
      {"measurement": "relative viability", "setting": "Gemcitabine + Olaparib; first compound 0.1 µM", "value": 0.937}
    ]}
  ]
}
